Measured values as given in patent US20220323444A1, “Methods of Treating Advanced Prostate Cancer” (The Medical College of Wisconsin, Inc., priority 2019, published 2022).
pIC50: −log10 of the molar value.

Experiments:
[1] = system: FL-AR, AR-V7 and AR-V9 mRNA and AR protein levels in PC cells; assay: AR mRNA (qRT-PCR) and AR / pYStat5 protein (immunoblot) in PC cells treated with Jak2 inhibitors; assay type: cell-based; conditions: for FL and AR-V AR mRNA and protein levels: CWR22Rv1 CRPC cell line, FIGS. 6A-6B
Protocol: Jak2 was inhibited for 3 days by Jak2 inhibitors AZD1480, gandotinib, pacritinib, baricitinib or fedratinib at indicated concentrations followed by RNA extraction and quantification of FL-AR, AR-V7 and AR-V9 mRNA levels by qRT-PCR.
Immunoblot analysis of AR expression in PC cells treated with increasing concentrations of Jak2 inhibitors AZD1480, gandotinib, pacritinib or baricitinib for 72 h.
(§1) We tested whether Stat5 regulation of AR mRNA and protein levels provides an opportunity to control AR levels pharmacologically by inhibition of Jak2 signaling. […] Finally, to evaluate the effect of PAC and FED on PC cell viability, CWR22Rv1 cells were treated with increasing concentrations of PAC or FED for 3 days.

[2] = system: Stat5 and Jak2 phosphorylation in PC cells; assay: ENZ-induced Jak2-Stat5 phosphorylation in PC cells (IP and WB); assay type: cell-based; conditions: CWR22Pc, LAPC4 and CWR22Pc-ENZ-R cells; AZD1480 800 nM, 12 days
Protocol: CWR22Pc and LAPC4 PC cells were treated with ENZ or vehicle for the indicated periods of time. Levels of active Stat5 were determined by immunoprecipitation (IP) of Stat5 followed by immunoblotting (WB) for pStat5a/b and total Stat5. Whole cell lysates (WCL) were immunoblotted for pStat3, Stat3 and Actin. […] CWR22Pc and LAPC4 cells were transduced with lentiviral AR shRNA (shAR) or lenti-shCtrl for 3 days followed by treatment with ENZ or vehicle for 7 days at the indicated concentrations.
PC cells were cultured with ENZ or Jak2 inhibitor AZD1480 (800 nM) alone or in combination for 12 days. Expression levels of active Stat5 were determined by IP of Stat5 followed by WB for pStat5a/b and total Stat5. WCLs were immunoblotted for pStat3, Stat3 and Actin. […] Jak2 was suppressed by lentiviral Jak2 shRNA vs. shCtrl in PC cells for 3 days followed by ENZ or vehicle for 7 days. Active Stat5, Stat5 and Jak2 levels were evaluated by IP and WB, as depicted. […] PC cells were treated with ENZ or vehicle for 6 h at the indicated concentrations. Control cells were stimulated with prolactin (Prl) (10 nM) for 20 min as control for cytokine-induced Jak2 phosphorylation. […] Alternatively, PC cells were treated with ENZ or vehicle for 12 days or stimulated with Prl for 20 min at the indicated concentrations. Stat5 and Jak2 were IP:ed and WB:ed for pStat5, pJak2, tot Stat5, and total Jak2.
To investigate whether AR is required for ENZ induction of Stat5 signaling, we inhibited AR expression in CWR22Pc and LAPC4 cells by genetic knockdown using lentiviral expression of AR shRNA (FIG. 9C).
To further assess the involvement of Jak2 in ENZ-induced Stat5 activation, Jak2 was genetically knocked down by lentiviral expression of Jak2 shRNA in CWR22Pc and LAPC4 cells for 3 days followed by ENZ treatment for 7 days.

[3] = system: AR mRNA and protein levels in CWR22Pc tumors; assay: AR levels in CWR22Pc xenograft tumors in nude mice; assay type: in vivo; conditions: 40 mg/kg i.p. daily for 40 days
Protocol: FIG. 4A. Pharmacological Stat5 inhibition decreases AR protein and mRNA levels in PC xenograft tumors in nude mice. Nuclear AR and Stat5 levels were detected by immunostaining of paraffin-embedded tissue sections of CWR22Pc tumors from mice treated with IST5-002 (IST5) (40 mg/kg; i.p.) for 40 days. Also, AR mRNA levels were evaluated by q-RT-PCR. FIG. 4B. Pharmacological inhibition of Stat5 by IST5-002 or pacritinib suppress AR mRNA levels in patient-derived PCs cultured ex vivo. Clinical PCs (n=4) obtained from prostatectomies were cultured for 7 days ex vivo in 3D tumor explant cultures in the presence of Stat5 inhibitor IST5-002 (12.5 μM) or PAC (1 μM) vs. vehicle, and AR mRNA levels were analyzed by qRT-PCR.
To evaluate whether Stat5 regulation of AR mRNA and protein levels is evident in an in vivo setting where PC cells were grown as xenograft tumors in mice, CWR22Pc cells (1.5×10^7) were inoculated subcutaneously into flanks of nude mice (one tumor/mouse). After tumors reached approximately 100 mm^3 in size (12 d), mice were treated daily for 40 days by intraperitoneal injection with IST5-002 (40 mg/kg body weight) or vehicle (0.3% hydroxypropyl cellulose/H2O) (5 mice/group). AR mRNA and protein levels were evaluated by q-RT-PCR(47) and by immunohistochemistry, as previously described(18, 45, 46, 48, 49).

[4] = system: AR mRNA and protein expression in CWR22PC cells; assay: PAC and FED on AR expression after Stat5-shRNA in CWR22PC cells; assay type: cell-based, human; conditions: lentiviral Stat5-shRNA
From the text: We tested whether PAC and FED are able to further reduce AR mRNA and/or protein expression following genetic suppression of AR gene expression via lentiviral expression of Stat5-shRNA in CWR22PC cells.

[5] = system: FL-AR and AR-V protein levels in CWR22Rv1 cells; assay: Pilot experiment: FED on AR protein levels in CWR22Rv1 cells (IB); assay type: cell-based; conditions: CWR22Rv1, 4 days
From the text: Jak2 was inhibited for 4 days by fedratinib (FED) at indicated concentrations followed by quantification of FL-AR, AR-V7 and AR-V9 protein levels by IB.
We conducted a pilot experiment to test the efficacy of FED in suppressing AR levels in PC cells (FIG. 16).

[6] = system: CWR22Rv1 PC cells; assay: Death / viability of CWR22Rv1 PC cells treated with Jak2 inhibitors; assay type: cell-based; conditions: for pIC50: 72 h, CWR22Rv1, at 3 days, read-out: IC50, induction of death of CWR22Rv1 PC cells
Protocol: as §1

[7] = system: AR-FL, AR-V7 and AR-V9 mRNA expression; assay: Low concentrations of FED and PAC on AR mRNA expression; assay type: cell-based; conditions: 0-0.6 μM
Protocol: As a preliminary study, we tested whether low contrations of FED and PAC (0, 0.01875, 0.0375, 0.075, 0.15, 0.3, 0.6 μM) reduce mRNA expression of full-length (AR-FL) and variant (AR-V7 and AR-V9) forms of AR.

[8] = system: androgen-responsive PC cell viability; assay: PC cell viability time-course versus androgen withdrawal (crystal violet staining and cell counting); assay type: cell-based
From the text: Crystal violet staining and cell counting were used to compare PC viability over a time-course of 2-10 days between cells treated with ADT and control (+ADT), cells treated with PAC and control (+DMSO), cells treated with FED and control (+DMSO), cells treated with Jak2 knockdown (shJak2) and control (shCtrl), and cells treated with Stat5 knockdown (shStat5) and control (shCtrl).
Next, we compared the effect of androgen deprivation therapy (ADT) carried out by androgen withdrawal, which is the standard therapy used to treat advanced prostate, to the effect of PAC and FED on androgen-responsive PC cell viability over a time-course of 2-10 days using crystal violet staining and cell counting. Based on this analysis, ADT decreased cell viability by 30% compared to control (+DHT), PAC decreased cell viability by 82% after 4 days of treatment and by 96% after 6 days of treatment compared to the control (+DMSO), FED decreased cell viability by 87% after 4 days of treatment and by 98% after 6 days of treatment compared to control (+DMSO), Jak2 knockdown (shJak2) decreased cell viability by 92% after 4 days of lentivirus infection and by 95% after 6 days of lentivirus infection compared to control (shCtrl), and Stat5 knockdown (shStat5) decreased cell viability by 96% after 4 days of lentivirus infection and by 98% after 6 days of lentivirus infection compared to control (shCtrl) (FIG. 25).

[9] = system: AR mRNA and protein in PC cells that survive ENZ treatment; assay: AR expression in CWR22PC cells surviving ENZ treatment; assay type: cell-based, human; conditions: ENZ 5 days, then PAC or FED for 4 days
[10] = system: CWR22PC PC cells that survive treatment with ENZ; assay: Viability of CWR22PC cells surviving ENZ treatment; assay type: cell-based, human; conditions: ENZ 5 days, then 300 nM for 4 days
Protocol: The PC cells were treated with ENZ (or vehicle) for 5 days, and were then treated with ENZ, vehicle, PAC, or FED for 4 days.
The effect of PAC and FED in blocking the growth of PC cells that survive treatment with the anti-androgen enzalutamide (ENZ) was tested in CWR22PC PC cells. The PC cells were treated in culture with ENZ (or vehicle) for 5 days, and were then treated with ENZ (40 μM), vehicle, PAC (300, 600 or 1200 nM), or FED (300, 600 or 1200 nM) for 4 days. […] Thus, PAC and FED can be used to reduce ENZ resistant PC cell growth.

[11] = system: AR protein levels in CWR22PC cells; assay: Time-course of AR protein levels in CWR22PC cells; assay type: cell-based, human; conditions: timepoints 12-72 h
[12] = system: AR-FL, AR-V7 and AR-V9 expression and Stat5 phosphorylation in PC cell lines; assay: Clinical grade versus research grade pacritinib: Stat5 phosphorylation and AR expression in PC cell lines; assay type: cell-based
Protocol: Control cells were treated with […] (ShCtrl).
The ability of clinical grade pacritinib (CTI Biopharma) to inhibit Stat5 phosphorylation and suppress AR expression in prostate cancer cells in vitro was compared to that of research grade pacritinib (MedChem Express (MCE)) and to cells in which Jak2 was knocked down using lentivirus expressing Jak2-shRNA (shJak2). […] Thus, clinical grade pacritinib induces the same effects as research grade pacrtinib, suppressing AR levels and reducing PC cell viability.

Cc1cc(Nc2nc(N[C@@H](C)c3ncc(F)cn3)ncc2Cl)n[nH]1 [AZD1480, 5-chloro-2-N-[(1S)-1-(5-fluoropyrimidin-2-yl)ethyl]-4-N-(5-methyl-1H-pyrazol-3-yl)pyrimidine-2,4-diamine]
FL and AR-V AR mRNA and protein levels [1]: dose-dependent reduction
ENZ-induced Stat5 phosphorylation [2]: blocked ENZ-induced Stat5 phosphorylation

O=P(O)(O)OC[C@H]1O[C@@H](n2cnc3c(NCc4ccccc4)ncnc32)[C@H](O)[C@@H]1O [IST5-002]
AR mRNA and protein expression in PC tumors in vivo [3]: marked decrease in AR mRNA and protein expression

CCS(=O)(=O)N1CC(CC#N)(n2cc(-c3ncnc4[nH]ccc34)cn2)C1 [baricitinib, 2-[1-Ethylsulfonyl-3-[4-(7H-pyrrolo[2,3-d]pyrimidin-4-yl)pyrazol-1-yl]azetidin-3-yl]acetonitrile]
FL and AR-V AR mRNA and protein levels [1]: dose-dependent reduction

Cc1cnc(Nc2ccc(OCCN3CCCC3)cc2)nc1Nc1cccc(S(=O)(=O)NC(C)(C)C)c1 [fedratinib, N-tert-Butyl-3-{5-methyl-2-[4-(2-pyrrolidin-1-yl-ethoxy)-phenylamino]-pyrimidin-4-ylamino}-benzenesulfonamide]
further reduction of AR mRNA/protein expression after Stat5-shRNA [4]: no further decrease in AR expression levels
FL and AR-V AR mRNA and protein levels [1]: dose-dependent reduction
FL-AR and AR-V protein levels [5]: depletes FL-AR and AR-V protein levels almost entirely
pIC50 [6]: 6.52
mRNA expression of AR-FL, AR-V7 and AR-V9 versus concentration [7]: AR expression levels decrease with increased concentrations
decrease in cell viability compared to control (+DMSO) ([8]; after 4 days of treatment): 87%
decrease in cell viability compared to control (+DMSO) ([8]; after 6 days of treatment): 98%
AR expression at mRNA and protein level in PC cells that survive ENZ treatment [9]: reduces expression of AR at both the mRNA and protein level
growth / viability of PC cells surviving ENZ treatment [10]: able to block the growth PC cells surviving ENZ treatment with very high efficacy

Cc1cc(Nc2cc(CN3CCOCC3)c3nc(C)c(Cc4ccc(Cl)cc4F)n3n2)n[nH]1 [gandotinib, 3-(4-Chloro-2-fluorobenzyl)-2-methyl-N-(5-methyl-1H-pyrazol-3-yl)-8-(morpholinomethyl)imidazo[1,2-b]pyridazin-6-amine]
FL and AR-V AR mRNA and protein levels [1]: dose-dependent reduction
pIC50 [6]: 6.52

N#CCNC(=O)c1ccc(-c2ccnc(Nc3ccc(N4CCOCC4)cc3)n2)cc1 [momelotinib]
AR protein levels in PC cells ([1]; 72 h, immunoblot, FIG. 6B): did not result in the suppression of AR protein levels
AR mRNA levels in PC cells ([1]; 3 days, qRT-PCR, FIG. 6A): does not suppress AR expression in PC cells
FL and AR-V AR mRNA and protein levels [1]: dose-dependent reduction
Stat5 phosphorylation ([1]; prostate cancer cells, FIG. 6B): does not inhibit Stat5 phosphorylation
induction of death of PC cells ([6]; FIG. 7D, 7E): does not provide the same effect of beneficial induction of cell death

C1=C/COCc2cc(ccc2OCCN2CCCC2)Nc2nccc(n2)-c2cccc(c2)COC/1 [pacritinib, (16E)-11-[2-(1-Pyrrolidinyl)ethoxy]-14,19-dioxa-5,7,26-triazatetracyclo[19.3.1.12,6.18,12]heptacosa-1(25),2(26),3,5,8,10,12(27),16,21,23-decaene]
further reduction of AR mRNA/protein expression after Stat5-shRNA [4]: no further decrease in AR expression levels
FL and AR-V AR mRNA and protein levels [1]: dose-dependent reduction
pIC50 [6]: 6.52
mRNA expression of AR-FL, AR-V7 and AR-V9 versus concentration [7]: AR expression levels decrease with increased concentrations
time after treatment at which AR protein levels start to decrease [11]: 48 h
decrease in cell viability compared to control (+DMSO) ([8]; after 4 days of treatment): 82%
decrease in cell viability compared to control (+DMSO) ([8]; after 6 days of treatment): 96%
efficacy in suppressing AR protein expression relative to research grade pacritinib ([12]; CWR22PC and CWR22Rv1, FIG. 18): has higher efficacy than research grade pacritinib (MCE)
phosphorylation of Stat5 ([12]; CWR22Pc, LAPC4): decreases phosphorylation of Stat5
AR expression at the protein level ([12]; CWR22Rv1 and CWR22PC): caused a reduction in AR expression at the protein level
mRNA expression of AR-FL, AR-V7 and AR-V9 ([12]; CWR22Rv1 and CWR22PC): reduced mRNA expression levels of both full-length (AR-FL) and variant (AR-V7 and AR-V9) forms of AR
efficacy in suppressing AR mRNA expression relative to research grade pacritinib ([12]; CWR22Rv1 and CWR22PC, FIG. 17): has higher efficacy than research grade pacritinib (MCE)
AR expression at mRNA and protein level in PC cells that survive ENZ treatment [9]: reduces expression of AR at both the mRNA and protein level
growth / viability of PC cells surviving ENZ treatment [10]: able to block the growth PC cells surviving ENZ treatment with very high efficacy
